Reference: publication PMC10353061 (ACS Pharmacology & Translational Science, 2023)

How the values were obtained:
Myc = Myc and β-catenin expression (western blot, qPCR) in LiCl-treated HCT116 cells; format: cell-based, human; conditions: HCT116, LiCl 50 mM, 24 h
Description: To this end, HCT116 cells were treated for 24 h with 50 mM LiCl and increasing concentrations (10–50–100 μM) of the two compounds.
Figure 7 Top panels. […] Vinculin was used as a loading control. […] Bottom panels. c-Myc mRNA levels were measured by qPCR and normalized to the expression of β-actin mRNA and expressed as fold change relative to the control sample. Results represent the mean ± SD of three independent experiments, each performed in triplicate. **p < 0.01, ***p < 0.001 as determined by ANOVA.
Briefly, total proteins from the cells in each group were subjected to 12% denaturing sodium dodecyl sulfate-polyacrylamide gel electrophoresis (SDS-PAGE). The proteins were then transferred onto a poly(vinylidene fluoride) (PVDF) membrane (Millipore). […] After the membrane was fully washed, it was incubated with secondary antibodies at 37 °C for 45 min goat anti-rabbit IgG H&L (HRP) (ab97051), Abcam, MA. The membrane was washed with Tris-buffered saline/Tween-20 (TBST) 4 times at room temperature for 14 min each time. Next, the samples were exposed and imaged (Sigma-Aldrich Chemical) using the enhanced chemiluminescence (ECL) method (Pierce Biotechnology).

HCT116 xenograft = test: In vivo HCT116 xenograft tumor growth inhibition; parameters: species or system BALB/C^nu/nu mice
Description: Ten-week-old female BALB/C^nu/nu mice were inoculated subcutaneously with HCT116 cells (1 × 10^8 cells/mL) at the logarithmic growth phase. Compound 9 (100 μL, 25 mg/kg) was administered through an intraperitoneal injection every 2 days after tumorigenesis. Mice were euthanized on day 30, and tumors on the backs were collected for the measurement of tumor volume and weight.
Figure 12 Compound 9 inhibited the in vivo tumorigenicity of human colorectal cancer line HCT116. (A) Tumor tissues. (B) Top panel. The volume of tumors originating. *p < 0.05 vs. the control group; t-test; n = 4. (B) Bottom panel. The weight of tumors originating. *p < 0.05 vs. the control group; t-test; n = 4. […] Magnification 200×.
Nuclear protein Ki67 is a proliferation marker of tumor cell proliferation and is an indicator in cancer diagnosis through a biopsy.[38] CD31 is a marker of angiogenesis, along with the vascular endothelial growth factor (VEGF).[39] CD31 has been found in the angiogenetic early breast cancer tissues and is highly expressed on the surface of endothelial cells.[40]
Briefly, all 10-week-old female BALB/C^nu/nu mice (8 mice) were purchased from the Shanghai University of Traditional Chinese Medicine with Institutional Animal Care and Use Committee approval in accordance with institutional guidelines. All mice were randomly divided into […]. In the #1 group (4 mice), 1 × 10^8 cells/mL from HCT116 at the logarithmic growth phase were harvested and inoculated subcutaneously into BALB/C^nu/nu mice and intraperitoneally injected with 100 μL of compound 9 (25 mg/kg) every 2 days after tumorigenesis. In the #2 group (4 mice), 1 × 10^8 cells/mL from […] at the logarithmic growth phase were harvested and inoculated subcutaneously into BALB/C^nu/nu mice and intraperitoneally injected 100 μL of saline every 2 days after tumorigenesis. After continuous feeding for 30 days, the mice were sacrificed, and the tumors were removed. The tumors were weighed, and the volumes were calculated using the following formula: tumor volume (cm^3) = (ab^2)/2 (a: the longest axis (cm), b: the shortest axis (cm))
Briefly, fresh tissues were immersed in 4% paraformaldehyde (Sigma-Aldrich) for fixation at room temperature for 30 min. The tissues were then dehydrated in an ethanol gradient, embedded in paraffin, sectioned (thickness: 6 μm), and immersed in xylene for dewaxing. Tissue sections were blocked with an immunohistochemical blocking solution (Beyotime Biotechnology Co., Ltd., Zhejiang, China) at 37 °C for 30 min. The blocking solution was then discarded, and the sections were washed 3 times at room temperature for 5 min each with an immunohistochemical washing solution (Beyotime Biotechnology). […]

[1] = 25 mg/kg i.p. every 2 days, day 30
[2] = immunofluorescence staining, 25 mg/kg i.p.

**Q.** `O=S(=O)(Nc1ccc(-c2ccccn2)cc1)c1ccc(Br)cc1` [Compound 9, 4-Bromo-N-(4-(pyridin-2-yl)phenyl)benzenesulfonamide] was tested. Which “inhibition of Myc expression” value (Myc; 10 μM) did it give?
**A.** Its value is “about 2.5 fold”.

**Q.** And the “protein and mRNA levels of Myc” value (Myc; 10–50–100 μM)?
**A.** The value was “significant dose-dependent inhibition”.

**Q.** What about the β-catenin protein levels (Myc; 10–50–100 μM) of the same compound?
**A.** The β-catenin protein levels was “reduced only at the highest dose”.

**Q.** What about the “tumor volume vs control group (saline)” value (HCT116 xenograft; [1]) of the same compound?
**A.** Its value is “significantly smaller”.

**Q.** What about the “tumor weight vs control group (saline)” value (HCT116 xenograft; [1]) of the same compound?
**A.** The value was “significantly smaller”.

**Q.** And the “expression of angiogenesis marker CD31 in tumor tissues” value (HCT116 xenograft; [2])?
**A.** The value was “significantly lower expression”.

**Q.** And the “expression of proliferation factor Ki67 in tumor tissues” value (HCT116 xenograft; [2])?
**A.** Its value is “significantly lower expression”.
